Laboratory results: ChEMBL document CHEMBL1201862, “PubChem BioAssay data set” (2004)
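The compound was tested at five concentrations on cells cultured in 96-well plates, with a 48-hour exposure period. GI50 marks 50% less growth.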 Activity calls are given as the source filed them. Cut-off read from the data, not from the text of the source: active = GI50 up to about 1.1 µM and inactive = higher.

Tests used:
Test in all cases: NCI tumour cell line growth inhibition, 48 h
SK-MEL-28 = system: SK-MEL-28
Malme-3M = system: Malme-3M
PC-3 = system: PC-3
ACHN = system: ACHN
SF-539 = system: SF-539
U-251 = system: U-251
RPMI-8226 = system: RPMI-8226
SW-620 = system: SW-620
KM-20L2 = system: KM-20L2
786-0 = system: 786-0
A498 = system: A498
SNB-19 = system: SNB-19
SR = system: SR
M14 = system: M14
NCI-H226 = system: NCI-H226
MDA-N = system: MDA-N
Hs-578T = system: Hs-578T
RXF 393 = system: RXF 393
KM12 = system: KM12
NCI-H460 = system: NCI-H460

CCC(/C=C/C1OC(=O)C=CC1C)=C\C(C)C/C=C/C(C)=C/C(C)C(=O)C(C)C(O)C(C)C/C(C)=C/C(=O)O (configuration not stated)
GI50 (SK-MEL-28): 2.65 µM (inactive)
GI50 (Malme-3M): 1.44 µM (inactive)
GI50 (PC-3): 1.27e-05 µM (active)
GI50 (ACHN): 7.4e-06 µM (active)
GI50 (SF-539): 1.04 µM (active)
GI50 (U-251): 2.26 µM (inactive)
GI50 (RPMI-8226): 1.37 µM (inactive)
GI50 (SW-620): 1.11 µM (active)
GI50 (KM-20L2): 4.13 µM (inactive)
GI50 (786-0): < 1e-06 µM (active)
GI50 (A498): 2.08 µM (inactive)
GI50 (SNB-19): 3.09 µM (inactive)
GI50 (SR): < 1e-06 µM (active)
GI50 (M14): 5.27e-06 µM (active)
GI50 (NCI-H226): 1.67 µM (inactive)
GI50 (MDA-N): 2.13e-06 µM (active)
GI50 (Hs-578T): 1.44e-05 µM (active)
GI50 (RXF 393): 1.13 µM (inactive)
GI50 (KM12): 4.54 µM (inactive)

Cc1nc(Nc2ccc(Cl)c(Cl)c2)sc1C(/C=C/c1ccc2c(c1)OCO2)=N/Nc1ccc([N+](=O)[O-])cc1[N+](=O)[O-]
GI50 (NCI-H460): > 100 µM (inactive)
GI50 (SK-MEL-28): > 100 µM (inactive)
GI50 (Malme-3M): > 100 µM (inactive)
GI50 (PC-3): > 100 µM (inactive)
GI50 (ACHN): > 92 µM (inactive)
GI50 (SF-539): 43.8 µM (inactive)
GI50 (U-251): 41.1 µM (inactive)
GI50 (RPMI-8226): > 82.2 µM (inactive)
GI50 (SW-620): > 100 µM (inactive)
GI50 (KM-20L2): > 100 µM (inactive)
GI50 (786-0): 20.1 µM (inactive)
GI50 (A498): > 50.9 µM (inactive)
GI50 (SNB-19): 48.1 µM (inactive)
GI50 (SR): > 91.4 µM (inactive)
GI50 (M14): 61.7 µM (inactive)
GI50 (NCI-H226): > 59 µM (inactive)
GI50 (MDA-N): > 100 µM (inactive)
GI50 (Hs-578T): > 74.5 µM (inactive)
GI50 (RXF 393): 27.2 µM (inactive)
GI50 (KM12): > 88.7 µM (inactive)

COc1ccc2c(=O)c(-c3cc(OC)c(OC)cc3OC)coc2c1
GI50 (NCI-H460): 2.48 µM (inactive)
GI50 (SK-MEL-28): 3.65 µM (inactive)
GI50 (Malme-3M): 4.54 µM (inactive)
GI50 (PC-3): 4.16 µM (inactive)
GI50 (ACHN): > 82.8 µM (inactive)
GI50 (SF-539): 3.3 µM (inactive)
GI50 (U-251): 2.19 µM (inactive)
GI50 (RPMI-8226): 2.35 µM (inactive)
GI50 (SW-620): 2.33 µM (inactive)
GI50 (KM-20L2): 2.05 µM (inactive)
GI50 (786-0): 4.11 µM (inactive)
GI50 (A498): 8.45 µM (inactive)
GI50 (SNB-19): 15.3 µM (inactive)
GI50 (SR): 1.27 µM (inactive)
GI50 (M14): 4.49 µM (inactive)
GI50 (NCI-H226): > 43.2 µM (inactive)
GI50 (MDA-N): 0.262 µM (active)
GI50 (Hs-578T): 1.98 µM (inactive)
GI50 (RXF 393): 2.45 µM (inactive)
GI50 (KM12): 2.74 µM (inactive)

COc1ccc2c(c1)c1ccc3c(c1n2C)C(=O)C=CC3=O
GI50 (NCI-H460): 26.9 µM (inactive)
GI50 (SK-MEL-28): 9.55 µM (inactive)
GI50 (Malme-3M): 7.76 µM (inactive)
GI50 (PC-3): 12.8 µM (inactive)
GI50 (ACHN): 6.24 µM (inactive)
GI50 (SF-539): 13 µM (inactive)
GI50 (U-251): 12.5 µM (inactive)
GI50 (RPMI-8226): 2.17 µM (inactive)
GI50 (SW-620): 4.1 µM (inactive)
GI50 (KM-20L2): 38.5 µM (inactive)
GI50 (786-0): 6.78 µM (inactive)
GI50 (A498): 25.4 µM (inactive)
GI50 (SNB-19): 26 µM (inactive)
GI50 (SR): 0.813 µM (active)
GI50 (M14): 10.4 µM (inactive)
GI50 (NCI-H226): 14.3 µM (inactive)
GI50 (MDA-N): 8.91 µM (inactive)
GI50 (Hs-578T): 8.09 µM (inactive)
GI50 (RXF 393): 5.35 µM (inactive)
GI50 (KM12): 18 µM (inactive)

CCOC(=O)C(=O)Nc1c(F)cc(F)cc1Br
GI50 (NCI-H460): > 100 µM (inactive)
GI50 (SK-MEL-28): > 100 µM (inactive)
GI50 (Malme-3M): > 100 µM (inactive)
GI50 (ACHN): > 100 µM (inactive)
GI50 (SF-539): > 100 µM (inactive)
GI50 (U-251): > 100 µM (inactive)
GI50 (RPMI-8226): > 100 µM (inactive)
GI50 (SW-620): > 100 µM (inactive)
GI50 (KM-20L2): > 100 µM (inactive)
GI50 (786-0): > 100 µM (inactive)
GI50 (A498): > 100 µM (inactive)
GI50 (SNB-19): > 100 µM (inactive)
GI50 (SR): > 100 µM (inactive)
GI50 (M14): > 100 µM (inactive)
GI50 (NCI-H226): > 100 µM (inactive)
GI50 (RXF 393): > 100 µM (inactive)
GI50 (KM12): > 100 µM (inactive)

CC1(C)CC[C@]2(C(=O)O)CCC3(C)C(=CCC4[C@@]5(C)CC[C@H](OC6OCC(O)C(O)C6OC6OC(CO)C(O)C(O)C6O)C(C)(C)C5CC[C@]43C)C2C1 (some centres not stated)
GI50 (NCI-H460): 2.1 µM (inactive)
GI50 (SK-MEL-28): 2.33 µM (inactive)
GI50 (Malme-3M): 1.87 µM (inactive)
GI50 (ACHN): 1.94 µM (inactive)
GI50 (SF-539): 2.22 µM (inactive)
GI50 (U-251): 1.93 µM (inactive)
GI50 (RPMI-8226): 2.35 µM (inactive)
GI50 (SW-620): 2.15 µM (inactive)
GI50 (KM-20L2): 2.02 µM (inactive)
GI50 (786-0): 2.04 µM (inactive)
GI50 (A498): 2.18 µM (inactive)
GI50 (SNB-19): 1.93 µM (inactive)
GI50 (SR): 2.29 µM (inactive)
GI50 (M14): 1.87 µM (inactive)
GI50 (NCI-H226): 1.55 µM (inactive)
GI50 (RXF 393): 1.96 µM (inactive)
GI50 (KM12): 2.24 µM (inactive)

CCc1cccc(C(C)CC)c1NC(=O)C(=O)C(CC(=O)Nc1ccc(Cl)c(Cl)c1)C(=O)OC (configuration not stated)
GI50 (NCI-H460): > 100 µM (inactive)
GI50 (SK-MEL-28): > 100 µM (inactive)
GI50 (Malme-3M): > 100 µM (inactive)
GI50 (ACHN): 9.71 µM (inactive)
GI50 (SF-539): > 100 µM (inactive)
GI50 (U-251): > 100 µM (inactive)
GI50 (RPMI-8226): 43.4 µM (inactive)
GI50 (SW-620): 46.7 µM (inactive)
GI50 (KM-20L2): 19.8 µM (inactive)
GI50 (786-0): 80.9 µM (inactive)
GI50 (A498): > 100 µM (inactive)
GI50 (SNB-19): > 100 µM (inactive)
GI50 (SR): 66.1 µM (inactive)
GI50 (M14): 57.1 µM (inactive)
GI50 (NCI-H226): > 100 µM (inactive)
GI50 (RXF 393): > 100 µM (inactive)
GI50 (KM12): 41.5 µM (inactive)

CC(=O)OCC1OC(OC2CC3C(C)(C)C(OC(C)=O)CC[C@]3(C)C3CCC45CC4(CC[C@H]5C(C)CC(O)C4OC4(C)C)[C@]23C)C(O)C(O)C1O (some centres not stated)
GI50 (NCI-H460): 1.79 µM (inactive)
GI50 (SK-MEL-28): 2.03 µM (inactive)
GI50 (Malme-3M): 7.98 µM (inactive)
GI50 (ACHN): 2.21 µM (inactive)
GI50 (SF-539): 3.89 µM (inactive)
GI50 (U-251): 1.82 µM (inactive)
GI50 (RPMI-8226): 1.95 µM (inactive)
GI50 (SW-620): 2.43 µM (inactive)
GI50 (KM-20L2): 1.85 µM (inactive)
GI50 (786-0): 2.7 µM (inactive)
GI50 (A498): 4.72 µM (inactive)
GI50 (SNB-19): 4.06 µM (inactive)
GI50 (SR): 2.65 µM (inactive)
GI50 (M14): 2.03 µM (inactive)
GI50 (NCI-H226): 5.06 µM (inactive)
GI50 (RXF 393): 1.55 µM (inactive)
GI50 (KM12): 1.35 µM (inactive)
